The values that follow are results of earlier work, collected in patent US20020072734A1, “Chip systems for the controlled emission of substances having a chemosensory effect” (PHARMED HOLDING GMBH, priority 2000, published 2002).

For data set [1], the system named is regio olfactoria. Conditions: rats; applied to the regio olfactoria.
For data set [2], the system named is regio olfactoria. As to conditions: mice; applied to the regio olfactoria.

Like-named read-outs stand apart in the source and are kept apart here.

In the case of `CC[C@H](C)[C@@H]1NC(=O)[C@H](Cc2ccc(O)cc2)NC(=O)[C@@H](N)CSSC[C@@H](C(=O)N2CCC[C@H]2C(=O)N[C@@H](CC(C)C)C(=O)NCC(N)=O)NC(=O)[C@H](CC(N)=O)NC(=O)[C@H](CCC(N)=O)NC1=O` [oxytocin], in the data set on regio olfactoria [1], the “rapid effects in the central nervous system (anxiety)” value is on record as “relieved anxiety”; the “rapid effects in the central nervous system (depression, aggression)” value was “anti-depressive and anti-aggressive”. In addition, in the data set on regio olfactoria [2], the “rapid effects in the central nervous system (anxiety)” value is listed as “relieved anxiety”; the “rapid effects in the central nervous system (depression, aggression)” value is “anti-depressive and anti-aggressive”.
